Reference: ChEMBL document CHEMBL1153957, “Novel small molecule activators of beta-catenin-mediated signaling pathway: structure-activity relationships of indirubins” (Bioorg Med Chem Lett, 2009)
Activity calls are given as the source filed them. No cut-off for these calls is given here.

How the values were obtained:
Type in all cases: cell-based
Conditions in all cases: Homo sapiens
[1] = Activation of Wnt signaling pathway in HEK293 cells assessed as increase in beta-catenin-mediated Tcf/Lef transcriptional activity at 250 nM after 24 hrs by dual luciferase reporter gene assay relative to control
[2] = Activation of Wnt signaling pathway in HEK293 cells assessed as increase in phosphorylation at Ser9 of GSK3-beta at 250 nM after 24 hrs by Western blot analysis
[3] = Activation of Wnt signaling pathway in HEK293 cells assessed as decrease in phosphorylation at Tyr216 of GSK3-beta at 250 nM after 24 hrs by Western blot analysis
[4] = Activation of Wnt signaling pathway in HEK293 cells assessed as decrease in phosphorylation at […]/37/Thr41 of […] at 250 nM after 24 hrs by Western blot analysis
[5] = Activation of Wnt signaling pathway in HEK293 cells assessed as increase in beta-catenin-mediated Tcf/Lef transcriptional activity after 24 hrs by dual luciferase reporter gene

Row | Structure (SMILES) | fold change (FC) [1] | also measured
1 | O=C1Nc2ccc(Cl)cc2/C1=C1/Nc2ccccc2/C1=N\O | 3.46 | 
2 | O=C1Nc2ccc([N+](=O)[O-])cc2/C1=C1/Nc2ccc(Br)cc2/C1=N/O | 1.66 | 
3 | O=Nc1c(-c2c(O)[nH]c3ccc([N+](=O)[O-])cc23)[nH]c2ccccc12 | 4.2 | Activity [2]: Active; Activity [3]: Active; Activity [4]: Active
4 | CC(C)(C)C(=O)Nc1ccc2c(c1)/C(=C1/Nc3ccccc3/C1=N\O)C(=O)N2 | 1.51 | 
5 | O=C1Nc2cc(Br)ccc2/C1=C1/Nc2ccccc2/C1=N\O | 2.7 | Activity [5]: Dose-dependent effect
6 | O=C1Nc2ccccc2/C1=C1/Nc2ccccc2C1=O | 2.04 | 
7 | CC(=O)Nc1ccc2c(c1)/C(=C1/Nc3ccccc3/C1=N\O)C(=O)N2 | 1.89 | 
